Key:
[1] = tested on: colorectal cancer xenografts with RSPO3 translocations; set-up: method as in PMID 26257057; conditions: cited from earlier work
[2] = tested on: HPAF-II cells; experiment: In vitro glucose uptake; format: cell-based, human; conditions: Latrunculin A 500 nmol/L, 48 hours
Procedure: (§1) SNU-1411, HPAF-II, and HCT116 cells were treated in vitro for 48 hours with RXC004 (100 nmol/L), Latrunculin A (Abcam #ab144290; 500 nmol/L), or DMSO prior to analysis using the Glucose Uptake Glo Assay Kit (Promega #J1341). The ATPlite assay was used to control for cell viability, confirming RXC004 has no effect on proliferation at this 48 hours timepoint.

[3] = tested on: HCT116 cells; experiment: In vitro glucose uptake; format: cell-based, human; conditions: HCT116, Latrunculin A 500 nmol/L, 48 hours
Procedure: as §1

[4] = tested on: SNU-1411 cells; experiment: In vitro glucose uptake; format: cell-based, human; conditions: SNU-1411, Latrunculin A 500 nmol/L, 48 hours
Procedure: as §1

SMILES | duration of tumor regrowth suppression after withdrawal of treatment [1] | glucose uptake [2] | glucose uptake [3] | glucose uptake [4]
Cn1c(=O)c2c(ncn2CC(=O)Nc2ccc(-c3ccccc3)nn2)n(C)c1=O [ETC-159] | up to 6 weeks |  |  | 
C/C1=C/C(=O)O[C@@H]2C[C@@H](CC[C@H](C)/C=C\C=C\CC1)O[C@@](O)([C@@H]1CSC(=O)N1)C2 [Latrunculin A, reference compound] |  | blocked glucose uptake | blocked glucose uptake | blocked glucose uptake
